Reference: patent publication US11161844B2, “Cyclic substituted imidazo[4,5-c]quinoline derivatives” (Pfizer Inc., priority 2017, dated 2021)

How the values were obtained:
[1] = target: mutant G2019S LRRK2 (Homo sapiens (Human), UniProt Q5S007, G2019S); assay: LRRK2 kinase assay (Lantha Screen), mutant G2019S; assay type: biochemical; conditions: 100 nM LRRKtide, 1 mM ATP, 2 μg/mL enzyme; single determination unless otherwise indicated
Method: (§1) LRRK2 kinase activity was measured using Lantha Screen technology from Invitrogen. GST-tagged truncated LRRK2 from Invitrogen (Cat #PV4874) was incubated with a fluorescein-labeled peptide substrate based upon ezrin/radixin/moesin (ERM), also known as LRRKtide (Invitrogen cat #PR8976A), in the presence of a dose response of compound. Upon completion, the assay was stopped and detected with a terbium labeled anti-phospho-ERM antibody (Invitrogen, cat #PR8975A). The assay was carried out under the following protocol: The compound dose response was prepared by diluting compound to a top concentration of 0.3 mM in 100% DMSO and serial diluted by half-log in DMSO to give an 11 point curve, 100× final assay concentration. Using Echo acoustic dispensing, 60 nL of compound was transferred to a low volume Corning 384-well assay plate. 3 μL of a working solution of substrate (200 nM LRRKtide, 2 mM ATP) prepared in assay buffer (50 mM HEPES, pH 7.5, 3 mM MgCl2, with 2 mM DTT and 0.01% Brij35 added fresh) was added to the 60 nL compound assay plate. The kinase reaction was started with 3 μL of a working solution of LRRK2 enzyme at a concentration of 4 μg/mL. The final reaction concentrations were 100 nM LRRKtide, 1 mM ATP, 2 μg/mL LRRK2 enzyme and a compound dose response with a top dose of 3 μM. The reaction was allowed to progress at room temperature for 30 minutes and then stopped with the addition of 6 μL of detection buffer (20 mM Tris pH 7.6, 0.01% NP-40, 6 mM EDTA with 2 nM terbium labeled anti-phospho-ERM). After an incubation of 1 hour at room temperature, the plate was read on an Envision with an excitation wavelength of 340 nm and a reading emission at both 520 nm and 495 nm. The ratio of the 520 nm and 495 nm emission was used to analyze the data. Inhibition of mutant G2019S LRRK2 (Invitrogen cat #PV4881) was measured in the exact same method. All final concentrations of substrate ATP and enzyme were the same.

[2] = target: LRRK2, WT (GST-tagged truncated LRRK2) (Homo sapiens (Human), UniProt Q5S007); assay: LRRK2 kinase assay (Lantha Screen), wild type; assay type: biochemical; conditions: 100 nM LRRKtide, 1 mM ATP, 2 μg/mL enzyme; geometric mean of 2-4 determinations unless otherwise indicated
Method: as §1

mutant G2019S LRRK2, sequence (Q5S007 970-2527 G2019S): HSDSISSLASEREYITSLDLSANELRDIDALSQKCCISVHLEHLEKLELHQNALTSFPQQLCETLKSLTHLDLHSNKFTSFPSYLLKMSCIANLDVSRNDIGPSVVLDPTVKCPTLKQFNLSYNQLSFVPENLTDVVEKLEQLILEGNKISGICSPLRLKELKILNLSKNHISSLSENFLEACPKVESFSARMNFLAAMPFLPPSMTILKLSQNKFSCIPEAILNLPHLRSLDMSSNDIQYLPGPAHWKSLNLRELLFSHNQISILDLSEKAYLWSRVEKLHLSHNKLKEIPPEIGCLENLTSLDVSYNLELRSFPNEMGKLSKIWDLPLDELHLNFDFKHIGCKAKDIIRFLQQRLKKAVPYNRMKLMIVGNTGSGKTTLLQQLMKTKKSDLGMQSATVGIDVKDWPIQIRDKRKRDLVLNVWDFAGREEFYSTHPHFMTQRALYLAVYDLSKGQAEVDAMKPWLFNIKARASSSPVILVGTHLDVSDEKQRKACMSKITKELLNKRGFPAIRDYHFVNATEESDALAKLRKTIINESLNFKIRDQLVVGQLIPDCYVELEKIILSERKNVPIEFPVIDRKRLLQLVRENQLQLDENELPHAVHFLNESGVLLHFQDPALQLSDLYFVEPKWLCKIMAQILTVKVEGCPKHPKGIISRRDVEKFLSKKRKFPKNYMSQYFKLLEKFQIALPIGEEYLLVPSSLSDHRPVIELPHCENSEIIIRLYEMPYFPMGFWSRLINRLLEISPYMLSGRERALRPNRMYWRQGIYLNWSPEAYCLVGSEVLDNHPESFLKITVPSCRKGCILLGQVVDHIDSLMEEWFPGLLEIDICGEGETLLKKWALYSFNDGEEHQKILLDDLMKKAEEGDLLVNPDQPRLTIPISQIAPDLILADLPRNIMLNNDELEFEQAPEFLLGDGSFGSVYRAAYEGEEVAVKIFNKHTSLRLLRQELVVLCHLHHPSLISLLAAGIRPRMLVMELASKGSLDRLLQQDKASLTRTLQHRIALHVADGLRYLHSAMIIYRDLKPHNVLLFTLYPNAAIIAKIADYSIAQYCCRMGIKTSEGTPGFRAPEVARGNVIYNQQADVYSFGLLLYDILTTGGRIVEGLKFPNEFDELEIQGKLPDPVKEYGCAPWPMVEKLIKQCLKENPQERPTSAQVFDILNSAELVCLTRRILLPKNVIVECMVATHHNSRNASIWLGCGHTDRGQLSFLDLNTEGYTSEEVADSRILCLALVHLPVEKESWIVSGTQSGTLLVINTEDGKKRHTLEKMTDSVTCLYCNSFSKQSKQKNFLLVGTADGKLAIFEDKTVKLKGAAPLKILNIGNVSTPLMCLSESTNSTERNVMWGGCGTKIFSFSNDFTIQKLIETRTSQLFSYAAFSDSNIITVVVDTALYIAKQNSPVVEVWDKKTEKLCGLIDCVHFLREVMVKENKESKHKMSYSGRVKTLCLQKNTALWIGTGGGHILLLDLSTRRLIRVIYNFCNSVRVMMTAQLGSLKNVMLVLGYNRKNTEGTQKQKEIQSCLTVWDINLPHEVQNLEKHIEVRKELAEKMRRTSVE
LRRK2, WT (GST-tagged truncated LRRK2), sequence (Q5S007 970-2527): as the sequence (Q5S007 970-2527 G2019S) above, with S1050G counted along it

Structure (SMILES)	IC50 [1]	IC50 [2]
C[C@@H]1C[C@H](n2c(C3CCCCC3(F)F)nc3cnc4ccc(C#N)cc4c32)CCO1 (stereo partly drawn) [Example 20, 2-(2,2-difluorocyclohexyl)-1-[(2R,4R)-2-methyltetrahydro-2H-pyran-4-yl]-1H-imidazo[4,5-c]quinoline-8-carbonitrile]	10.4 nM	17.7 nM
C[C@@H]1C[C@H](n2c(C3CCOCC3)nc3cnc4ccc(Cl)cc4c32)CCO1 [Example 7, 8-chloro-1-[(2R,4R)-2-methyltetrahydro-2H-pyran-4-yl]-2-(tetrahydro-2H-pyran-4-yl)-1H-imidazo[4,5-c]quinoline]	18.2 nM	16.3 nM
CN1CC(n2c(C3CCC(F)C3)nc3cnc4ccc(C#N)cc4c32)C(F)(F)C1 (centres unmarked) [Example 60, 1-(4,4-difluoro-1-methylpyrrolidin-3-yl)-2-(3-fluorocyclopentyl)-1H-imidazo[4,5-c]quinoline-8-carbonitrile]	97.4 nM	57.1 nM
N#CC[C@@H]1C[C@H](n2c3c(cnc4ccc(Cl)cc43)nc2[C@H]2CC[C@@H](F)CC2)CCO1 [Example 28, {(2S,4R)-4-[8-chloro-2-(cis-4-fluorocyclohexyl)-1H-imidazo[4,5-c]quinolin-1-yl]tetrahydro-2H-pyran-2-yl}acetonitrile]	5.12 nM	9.71 nM
CC1(C)CC(n2c(C3CCC(F)C3)nc3cnc4ccc(C#N)cc4c32)CCO1 (centres unmarked) [Example 40, 1-(2,2-dimethyltetrahydro-2H-pyran-4-yl)-2-(3-fluorocyclopentyl)-1H-imidazo[4,5-c]quinoline-8-carbonitrile]	4.33 nM	7.14 nM
C[C@@H]1C[C@H](n2c([C@H]3CCOC3)nc3cnc4ccc(C(F)(F)F)cc4c32)CCO1 [Example 26, 1-[(2R,4R)-2-methyltetrahydro-2H-pyran-4-yl]-2-[(3R)-tetrahydrofuran-3-yl]-8-(trifluoromethyl)-1H-imidazo[4,5-c]quinoline]	5.71 nM	9.79 nM
CN1CC(n2c(C3CCC(F)C3)nc3cnc4ccc(C#N)cc4c32)C(F)(F)C1 (centres unmarked) [Example 58, 1-(4,4-difluoro-1-methylpyrrolidin-3-yl)-2-(3-fluorocyclopentyl)-1H-imidazo[4,5-c]quinoline-8-carbonitrile]	21.2 nM	12.2 nM
C[C@@H]1C[C@H](n2c(C3CCC(F)C3)nc3cnc4ccc(C#N)cc4c32)CCO1 (stereo partly drawn) [Example 14, 2-[(cis)-3-fluorocyclopentyl]-1-[(2R,4R)-2-methyltetrahydro-2H-pyran-4-yl]-1H-imidazo[4,5-c]quinoline-8-carbonitrile]	10.8 nM	15.2 nM
C[C@@H]1C[C@H](n2c3c(cnc4ccc(C#N)cc43)nc2[C@H]2CC[C@@H](F)CC2)CCO1 [Example 15, 2-(cis-4-fluorocyclohexyl)-1-[(2R,4R)-2-methyltetrahydro-2H-pyran-4-yl]-1H-imidazo[4,5-c]quinoline-8-carbonitrile]	8.3 nM	6.75 nM
CN1CC[C@@H](n2c([C@H]3CCOC3)nc3cnc4ccc(C#N)cc4c32)C1 [Example 25, 1-[(3R)-1-methylpyrrolidin-3-yl]-2-[(3R)-tetrahydrofuran-3-yl]-1H-imidazo[4,5-c]quinoline-8-carbonitrile]	80 nM	32.5 nM
C[C@@H]1C[C@H](n2c3c(cnc4ccc(Cl)cc43)nc2[C@H]2CC[C@@H](F)CC2)CCO1 [Example 1, 8-chloro-2-(cis-4-fluorocyclohexyl)-1-[(2R,4R)-2-methyltetrahydro-2H-pyran-4-yl]-1H-imidazo[4,5-c]quinoline]	4.75 nM	7.32 nM
CN1CC[C@@H](n2c3c(cnc4ccc(C#N)cc43)nc2[C@H]2CC[C@@H](F)CC2)C1 [Example 23, 2-(cis-4-fluorocyclohexyl)-1-[(3R)-1-methylpyrrolidin-3-yl]-1H-imidazo[4,5-c]quinoline-8-carbonitrile]	33 nM	10.9 nM
N#CC[C@@H]1C[C@H](n2c3c(cnc4ccc(F)cc43)nc2[C@H]2CC[C@@H](F)CC2)CCO1 [Example 29, {(2S,4R)-4-[8-fluoro-2-(cis-4-fluorocyclohexyl)-1H-imidazo[4,5-c]quinolin-1-yl]tetrahydro-2H-pyran-2-yl}acetonitrile]	4.63 nM	6.53 nM
CC1(C)CC(n2c(C3CCC(F)C3)nc3cnc4ccc(C#N)cc4c32)CCO1 (centres unmarked) [Example 41, 1-(2,2-dimethyltetrahydro-2H-pyran-4-yl)-2-(3-fluorocyclopentyl)-1H-imidazo[4,5-c]quinoline-8-carbonitrile]	49.6 nM	64.1 nM
CN1CC[C@@H](n2c(C3CCC(F)C3)nc3cnc4ccc(F)cc4c32)C1 (stereo partly drawn) [Example 34, 8-fluoro-2-[cis-3-fluorocyclopentyl]-1-[(3R)-1-methylpyrrolidin-3-yl]-1H-imidazo[4,5-c]quinoline]	77 nM	59.6 nM
CC1CC(c2nc3cnc4ccc(Cl)cc4c3n2[C@@H]2CCO[C@H](C)C2)CO1 (stereo partly drawn) [Example 10, 8-chloro-2-(5-methyltetrahydrofuran-3-yl)-1-[(2R,4R)-2-methyltetrahydro-2H-pyran-4-yl]-1H-imidazo[4,5-c]quinoline]	23.3 nM	23.1 nM
CN1CC[C@@H](n2c3c(cnc4ccc(C#N)cc43)nc2[C@H]2C[C@@](C)(F)C2)C1 [Example 22, 2-(cis-3-fluoro-3-methylcyclobutyl)-1-[(3R)-1-methylpyrrolidin-3-yl]-1H-imidazo[4,5-c]quinoline-8-carbonitrile]	36.5 nM	14.2 nM
C[C@@H]1C[C@H](n2c(C3CC(C)(F)C3)nc3cnc4ccc(Cl)cc4c32)CCO1 (stereo partly drawn) [Example 3, 8-chloro-2-(cis-3-fluoro-3-methylcyclobutyl)-1-[(2R,4R)-2-methyltetrahydro-2H-pyran-4-yl]-1H-imidazo[4,5-c]quinoline]	5.44 nM	6.81 nM
C[C@@H]1C[C@H](n2c(C3CCC(F)C3)nc3cnc4ccc(F)cc4c32)CCO1 (stereo partly drawn) [Example 37, 8-fluoro-2-[trans-3-fluorocyclopentyl]-1-[(2R,4R)-2-methyltetrahydro-2H-pyran-4-yl]-1H-imidazo[4,5-c]quinoline]		200 nM

The remaining molecules from weak to strong by IC50 [2], led by results:

IC50 [1]	IC50 [2]	Structure (SMILES)
141 nM	30.5 nM	CN1CC(n2c(C3CCC(F)C3)nc3cnc4ccc(C#N)cc4c32)C(F)(F)C1 (centres unmarked) [Example 59, 1-(4,4-difluoro-1-methylpyrrolidin-3-yl)-2-(3-fluorocyclopentyl)-1H-imidazo[4,5-c]quinoline-8-carbonitrile]
13.8 nM	20.3 nM	C[C@@H]1C[C@H](n2c(C3CCC(F)(F)C3)nc3cnc4ccc(Cl)cc4c32)CCO1 (stereo partly drawn) [Example 11, 8-chloro-2-(3,3-difluorocyclopentyl)-1-[(2R,4R)-2-methyltetrahydro-2H-pyran-4-yl]-1H-imidazo[4,5-c]quinoline]
11.3 nM	18.5 nM	C[C@@H]1C[C@H](n2c(C3CCCO3)nc3cnc4ccc(Cl)cc4c32)CCO1 (stereo partly drawn) [Example 9, 8-chloro-1-[(2R,4R)-2-methyltetrahydro-2H-pyran-4-yl]-2-(tetrahydrofuran-2-yl)-1H-imidazo[4,5-c]quinoline]
10.6 nM	16.2 nM	C[C@@H]1C[C@H](n2c([C@H]3CCOC3)nc3cnc4ccc(C#N)cc4c32)CCO1 [Example 16, 1-[(2R,4R)-2-methyltetrahydro-2H-pyran-4-yl]-2-[(3R)-tetrahydrofuran-3-yl]-1H-imidazo[4,5-c]quinoline-8-carbonitrile]
12.4 nM	16.1 nM	C[C@@H]1C[C@H](n2c3c(cnc4ccc(C#N)cc43)nc2[C@H]2C[C@@H](F)C2)CCO1 [Example 19, 2-(cis-3-fluorocyclobutyl)-1-[(2R,4R)-2-methyltetrahydro-2H-pyran-4-yl]-1H-imidazo[4,5-c]quinoline-8-carbonitrile]
3.84 nM	6.29 nM	C[C@@H]1C[C@H](n2c(C3CCC(F)C3)nc3cnc4ccc(C#N)cc4c32)CCO1 (single isomer, unassigned) [Example 13]
22.4 nM	5.27 nM	CN1CC[C@@H](n2c3c(cnc4ccc(C#N)cc43)nc2[C@H]2C[C@@H](F)C2)C1 [Example 24, 2-(cis-3-fluorocyclobutyl)-1-[(3R)-1-methylpyrrolidin-3-yl]-1H-imidazo[4,5-c]quinoline-8-carbonitrile]
5.94 nM	4.54 nM	CN1CC(n2c(C3CCC(F)C3)nc3cnc4ccc(C#N)cc4c32)C(F)(F)C1 (centres unmarked) [Example 57, 1-(4,4-difluoro-1-methylpyrrolidin-3-yl)-2-(3-fluorocyclopentyl)-1H-imidazo[4,5-c]quinoline-8-carbonitrile]
